Values joined by “and” are separate entries in the source; they are usually repeats but may differ in a detail not shown here. Identical values can stand only once.
Key:
22Rv1 cells = test: Growth assay (SRB), 22Rv1; format: cell-based, human; conditions: 22Rv1, 4 days, biological reps
Method: (§1) To determine the IC50 of drug treatments on growth, cells were seeded in 96-well culture plates. Two days after seeding, the cells were treated with increasing concentrations of drugs and incubated for 4 days. Cell number was determined using the SRB assay (Skehan et al, [1990]), and IC50 values were calculated using non-linear regression curve fitting in GraphPad Prism v10. For all other growth experiments, cells were seeded into 96-well plates, and appropriate drugs were added 2 days after seeding. Cells were then incubated in an IncuCyte Zoom live-cell imager, with cell confluency measured every 6 h. Cell doubling times were determined by non-linear curve fitting (exponential growth equation) in GraphPad Prism v10.

MCF7 cells = test: Growth assay (SRB), MCF7; format: cell-based, human; conditions: for % Growth: biological reps
Method: as §1

CDK7-D97N = biological target: T1, CDK7-D97N (Homo sapiens, UniProt P50613, D97N); test: NanoBRET Target Engagement assay, K-10 tracer displacement in HEK293 cells; format: binding; conditions: CDK7 D97N, replicates N1-N3
T1 construct: expressed in transfected cells; host or cells: HEK293
T1 sequence (P50613 whole entry D97N): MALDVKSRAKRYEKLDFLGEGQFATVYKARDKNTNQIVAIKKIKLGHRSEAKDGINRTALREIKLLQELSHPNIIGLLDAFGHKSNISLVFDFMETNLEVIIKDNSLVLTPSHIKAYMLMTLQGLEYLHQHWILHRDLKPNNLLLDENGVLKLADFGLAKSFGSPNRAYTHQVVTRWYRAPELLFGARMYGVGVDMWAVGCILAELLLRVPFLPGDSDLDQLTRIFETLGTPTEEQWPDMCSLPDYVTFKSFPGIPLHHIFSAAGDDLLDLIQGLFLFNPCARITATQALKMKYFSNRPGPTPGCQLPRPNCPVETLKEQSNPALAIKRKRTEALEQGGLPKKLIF
Method: (§2) Energy transfer between the NanoLuc fusion protein and a cell-permeable fluorescent energy transfer probe facilitates quantitative determination of target engagement in live cells (Wells et al, [2020]). Assays were conducted according to this previous report, using the optimal CDK7 probe, K-10, at a concentration of 0.5 µM.
(§3) CDK4, CDK6 and CDK7 and the respective mutant sequences, obtained as synthesised DNA fragments from IDT (Leuven), were cloned by HiFi DNA assembly (New England Biolabs) into the pNLF1-N NanoLuc protein fusion vector (Promega). HEK293 cells, transiently transfected with NanoLuc-CDK fusion constructs, were used for activity determination, utilising the NanoBRET Target Engagement Intracellular Kinase Assay. A CCND1 expression construct was co-transfected with the NanoLuc-CDK4 and NanoLuc-CDK6 fusion constructs. The recommended cell-permeable energy transfer probe, K-10, was used to assess target engagement, as detailed in the manufacturer’s methods (Promega). […] The BRET ratio (mBU) was calculated as acceptor emission (590–610 nm)/donor emission (410–490 nm) × 1000. The mBU values were plotted against the energy probe concentrations to determine maximal binding (Bmax) and Kd values. BRET signal competition by CDK inhibitors was used to determine compound binding to WT and mutant CDKs. […] Inhibitor binding was determined using a fourfold dilution series. mBU values were plotted against test compound concentrations in the presence of K10 tracer. EC50 values were determined using nonlinear regression curve-fitting. Test compound occupancy (%) was calculated using the equation [1 − (x − z)/(y − z)] × 100, where x = mBU in the presence of the test compound and K-10 tracer, y = mBU with K-10 tracer and vehicle control, and z = mBU in the absence of the K-10 tracer or test compound (Wells et al, [2020]).

CDK7-WT = biological target: T2, CDK7-WT (Homo sapiens, UniProt P50613); test: as above; format: binding; conditions: CDK7 WT, replicates N1-N3
T2 construct: expressed in transfected cells; host or cells: HEK293
T2 sequence (P50613 whole entry): as the sequence (P50613 whole entry D97N) above, with N97D counted along it
Method: as §2, §3

**Q.** With `CN(C)C/C=C/C(=O)Nc1ccc(C(=O)Nc2cccc(Nc3ncc(Cl)c(-c4c[nH]c5ccccc45)n3)c2)cc1` [THZ1] as the compound, how does the “% Growth” value (22Rv1 cells; Log10 Conc. (nM) 0.09) read?
**A.** 93.20% and 88.05%

**Q.** And the “% Growth” value (22Rv1 cells; Log10 Conc. (nM) 0.69)?
**A.** 85.45% and 77.80%

**Q.** What about the “% Growth” value (22Rv1 cells; Log10 Conc. (nM) 1.29) of the same compound?
**A.** 56.44% and 44.90%

**Q.** What about the “% Growth” value (22Rv1 cells; Log10 Conc. (nM) 1.89) of the same compound?
**A.** 5.80% and -0.07%

**Q.** What about the “% Growth” value (22Rv1 cells; Log10 Conc. (nM) 2.49) of the same compound?
**A.** -4.12% and -6.31%

**Q.** And the “% Growth” value (22Rv1 cells; Log10 Conc. (nM) 3.10)?
**A.** -6.49% and -7.67%

**Q.** What about the “% Growth” value (22Rv1 cells; Log10 Conc. (nM) 3.70) of the same compound?
**A.** -6.63% and -7.61%

**Q.** What about the “% Growth” value (22Rv1 cells; Log10 Conc. (nM) -0.52) of the same compound?
**A.** 98.36% and 93.94%

**Q.** And the “% Growth” value (22Rv1 cells; Log10 Conc. (nM) -1.12)?
**A.** 96.18% and 94.83%

**Q.** And the IC50 (MCF7 cells; 4 days, SRB)?
**A.** 153 nM

**Q.** And the “% Growth” value (MCF7 cells; Log10 Conc. (nM) 0.09, 4 days)?
**A.** 91.30% and 94.59% and 94.55%

**Q.** What about the “% Growth” value (MCF7 cells; Log10 Conc. (nM) 0.69, 4 days) of the same compound?
**A.** 87.28% and 92.52% and 92.40%

**Q.** What about the “% Growth” value (MCF7 cells; Log10 Conc. (nM) 1.29, 4 days) of the same compound?
**A.** 80.95% and 90.37% and 89.19%

**Q.** And the “% Growth” value (MCF7 cells; Log10 Conc. (nM) 1.89, 4 days)?
**A.** 64.20% and 77.72% and 79.90%

**Q.** What about the “% Growth” value (MCF7 cells; Log10 Conc. (nM) 3.10, 4 days) of the same compound?
**A.** -9.63% and -1.23% and -2.34%

**Q.** And the “% Growth” value (MCF7 cells; Log10 Conc. (nM) 3.70, 4 days)?
**A.** -9.74% and -3.96% and -4.65%

**Q.** What about the “% Growth” value (MCF7 cells; Log10 Conc. (nM) -0.52, 4 days) of the same compound?
**A.** 92.77% and 97.61% and 102.10%

**Q.** And the “% Growth” value (MCF7 cells; Log10 Conc. (nM) -1.12, 4 days)?
**A.** 92.06% and 94.91% and 96.97%

**Q.** What about the “% Occupacy” value (CDK7-D97N; Log10 Conc. (nM) 0.09) of the same compound?
**A.** 9.16% and 2.67% and 0.07%

**Q.** What about the “% Occupacy” value (CDK7-D97N; Log10 Conc. (nM) 0.69) of the same compound?
**A.** 13.92% and 3.61% and 4.36%

**Q.** What about the “% Occupacy” value (CDK7-D97N; Log10 Conc. (nM) 1.29) of the same compound?
**A.** 29.03% and 9.81% and 4.02%

**Q.** And the “% Occupacy” value (CDK7-D97N; Log10 Conc. (nM) 1.89)?
**A.** 74.11% and 30.96% and 26.31%

**Q.** What about the “% Occupacy” value (CDK7-D97N; Log10 Conc. (nM) 2.49) of the same compound?
**A.** 95.10% and 79.08% and 80.38%

**Q.** And the “% Occupacy” value (CDK7-D97N; Log10 Conc. (nM) 3.10)?
**A.** 97.98% and 96.38% and 96.98%

**Q.** And the “% Occupacy” value (CDK7-D97N; Log10 Conc. (nM) 3.70)?
**A.** 98.68% and 99.58% and 99.12%

**Q.** And the “% Occupacy” value (CDK7-D97N; Log10 Conc. (nM) 4.30)?
**A.** 99.99% and 100.77% and 101.05%

**Q.** And the “% Occupacy” value (CDK7-D97N; Log10 Conc. (nM) -0.52)?
**A.** 6.83% and 2.53% and 1.19%

**Q.** What about the “% Occupacy” value (CDK7-D97N; Log10 Conc. (nM) -1.12) of the same compound?
**A.** 11.58% and 4.35% and 1.55%

**Q.** What about the “% Occupacy” value (CDK7-D97N; Log10 Conc. (nM) -1.72) of the same compound?
**A.** 7.10% and 3.74% and 2.78%

**Q.** And the “% Occupacy” value (CDK7-WT; Log10 Conc. (nM) 0.09)?
**A.** 16.74% and 4.33% and 5.86%

**Q.** And the “% Occupacy” value (CDK7-WT; Log10 Conc. (nM) 0.69)?
**A.** 17.70% and 6.32% and 7.28%

**Q.** What about the “% Occupacy” value (CDK7-WT; Log10 Conc. (nM) 1.29) of the same compound?
**A.** 29.22% and 3.65% and 10.56%

**Q.** What about the “% Occupacy” value (CDK7-WT; Log10 Conc. (nM) 1.89) of the same compound?
**A.** 53.51% and 14.09% and 19.55%

**Q.** And the “% Occupacy” value (CDK7-WT; Log10 Conc. (nM) 2.49)?
**A.** 85.19% and 65.85% and 67.10%

**Q.** What about the “% Occupacy” value (CDK7-WT; Log10 Conc. (nM) 3.10) of the same compound?
**A.** 97.70% and 100.48% and 92.33%

**Q.** What about the “% Occupacy” value (CDK7-WT; Log10 Conc. (nM) 3.70) of the same compound?
**A.** 102.14% and 100.08% and 100.97%

**Q.** And the “% Occupacy” value (CDK7-WT; Log10 Conc. (nM) 4.30)?
**A.** 101.17% and 106.00% and 102.12%

**Q.** And the “% Occupacy” value (CDK7-WT; Log10 Conc. (nM) -0.52)?
**A.** 21.00% and 8.28% and 9.27%

**Q.** And the “% Occupacy” value (CDK7-WT; Log10 Conc. (nM) -1.12)?
**A.** 15.97% and 8.08% and 8.28%

**Q.** And the “% Occupacy” value (CDK7-WT; Log10 Conc. (nM) -1.72)?
**A.** 12.78% and 7.38% and 8.51%
